Assay results as given in patent US6337417B1, “N-phenyltetrahydrophthalamic acid derivatives, methods of producing same, and herbicides containing same as effective components” (Central Glass Co., Ltd., priority 1994, dated 2002).

Assays:
Format in all cases: in vivo
Parameters in all cases: key: 5: completely killed; 4: seriously injured; 3: considerably injured; 2: somewhat injured; 1: slightly injured; 0: not injured (normally grown)
paddy rice = experiment: Experiment 7 flooded soil treatment: injury to paddy rice; settings: evaluated 4 weeks after treatment
Text: (§1) Paddy soil (clay loam) was put into a pot so as to have a surface area of 1/15500 ares. Uniformly mixed seeds of several kinds of weeds, viz., nobie (barnyardgrass, Echinochloa spp.), broad-leaved weeds, hotarui (bulrush, Scirpus juncoides) and tamagayatsuri (small-flowered umbrellaplant, Cyperus difformis), were sown in the surface layer of the soil in each pot, and then paddy rice seedlings at the two- or three-leaved stage were transplanted into each pot to a depth of 2 cm, and water was fed into each pot so as to provide a 3 cm deep water layer on the soil surface. After 3 days, in other words at the initial stage of germination of nobie (barnyardgrass, Echinochloa spp.), a predetermined amount of a selected compound obtained in a manner analogous to Example 14 in the form of diluted aqueous solution was dropped into the water layer in each pot. After that, the pots were kept in a glass chamber to allow the paddy rice and the weeds to grow, and after the lapse of 4 weeks from the treatment with the selected compounds, the herbicidal effects and the degree of injury to the paddy rice were evaluated. The evaluation of the herbicidal effects was similarly conducted as that of Experiment 1.

[1] = system: nobie (barnyardgrass, Echinochloa spp.); experiment: Experiment 7 flooded soil treatment: nobie; settings: evaluated 4 weeks after treatment
Text: as §1

broad-leaved weeds = experiment: Experiment 7 flooded soil treatment: broad-leaved weeds; settings: evaluated 4 weeks after treatment
Text: as §1

[2] = system: hotarui (bulrush, Scirpus juncoides); experiment: Experiment 7 flooded soil treatment: hotarui; settings: evaluated 4 weeks after treatment
Text: as §1

[3] = system: tamagayatsuri (small-flowered umbrellaplant, Cyperus difformis); experiment: Experiment 7 flooded soil treatment: tamagayatsuri; settings: evaluated 4 weeks after treatment
Text: as §1

rice = experiment: Experiment 8 foliage treatment: rice; settings: foliage spray of wettable powder suspension, evaluated 4 weeks after treatment
Method: (§2) Upon seedling stage (two- or three-leaved stage) of rice, cockspur (Panicum crus-galli), garden radish, aobiyu (slender amaranth, Amaranthus viridis) and mehishiba (henry crabgrass, Digitaria cliaris) which were grown on a cultivated soil put in pots of 1/15500 ares, a selected compound obtained in a manner analogous to Example 14, in suspended wettable powder, was sprayed to each plant. After that, the pots were kept in a glass chamber to allow each plant to grow, and after the lapse of 4 weeks from the treatment with the selected compounds the herbicidal effects were evaluated. The evaluation of the herbicidal effects was similarly conducted as to that of Experiment 1.

[4] = system: cockspur (Panicum crus-galli); experiment: Experiment 8 foliage treatment: cockspur; settings: foliage spray of wettable powder suspension, evaluated 4 weeks after treatment
Method: as §2

garden radish = experiment: Experiment 8 foliage treatment: garden radish; settings: foliage spray of wettable powder suspension, evaluated 4 weeks after treatment
Method: as §2

[5] = system: aobiyu (slender amaranth, Amaranthus viridis); experiment: Experiment 8 foliage treatment: aobiyu; settings: foliage spray of wettable powder suspension, evaluated 4 weeks after treatment
Method: as §2

[6] = system: mehishiba (henry crabgrass, Digitaria cliaris); experiment: Experiment 8 foliage treatment: mehishiba; settings: foliage spray of wettable powder suspension, evaluated 4 weeks after treatment
Method: as §2

[7] = system: ichibi (velvetleaf, Abutilon theophrasti); experiment: Experiment 9 foliage treatment: ichibi; settings: foliage spray of wettable powder suspension, evaluated 4 weeks after treatment
Method: as §2, with “ichibi (velvetleaf, Abutilon theophrasti), onamomi (heartleaf cocklebur, Xanthium strumarium) (4L stage), noasagao (blue morningglory, Ipomoea indica)” for “rice, cockspur (Panicum crus-galli), garden radish, aobiyu (slender amaranth, Amaranthus viridis)”, “ooinutade (pale smartweed, Persicaria lapathifolia)” for “mehishiba (henry crabgrass, Digitaria cliaris)”, “1/8850” for “1/15500”, “as” for “as to”

[8] = system: onamomi (heartleaf cocklebur, Xanthium strumarium); experiment: Experiment 9 foliage treatment: onamomi; settings: foliage spray of wettable powder suspension, evaluated 4 weeks after treatment
Method: as §2, with “ichibi (velvetleaf, Abutilon theophrasti), onamomi (heartleaf cocklebur, Xanthium strumarium) (4L stage), noasagao (blue morningglory, Ipomoea indica)” for “rice, cockspur (Panicum crus-galli), garden radish, aobiyu (slender amaranth, Amaranthus viridis)”, “ooinutade (pale smartweed, Persicaria lapathifolia)” for “mehishiba (henry crabgrass, Digitaria cliaris)”, “1/8850” for “1/15500”, “as” for “as to”

[9] = system: noasagao (blue morningglory, Ipomoea indica); experiment: Experiment 9 foliage treatment: noasagao; settings: foliage spray of wettable powder suspension, evaluated 4 weeks after treatment
Method: as §2, with “ichibi (velvetleaf, Abutilon theophrasti), onamomi (heartleaf cocklebur, Xanthium strumarium) (4L stage), noasagao (blue morningglory, Ipomoea indica)” for “rice, cockspur (Panicum crus-galli), garden radish, aobiyu (slender amaranth, Amaranthus viridis)”, “ooinutade (pale smartweed, Persicaria lapathifolia)” for “mehishiba (henry crabgrass, Digitaria cliaris)”, “1/8850” for “1/15500”, “as” for “as to”

[10] = system: ooinutade (pale smartweed, Persicaria lapathifolia); experiment: Experiment 9 foliage treatment: ooinutade; settings: foliage spray of wettable powder suspension, evaluated 4 weeks after treatment
Method: as §2, with “ichibi (velvetleaf, Abutilon theophrasti), onamomi (heartleaf cocklebur, Xanthium strumarium) (4L stage), noasagao (blue morningglory, Ipomoea indica)” for “rice, cockspur (Panicum crus-galli), garden radish, aobiyu (slender amaranth, Amaranthus viridis)”, “ooinutade (pale smartweed, Persicaria lapathifolia)” for “mehishiba (henry crabgrass, Digitaria cliaris)”, “1/8850” for “1/15500”, “as” for “as to”

**Q.** What does the source list for `C#CC(C)Oc1cc(N(C(=O)C2=C(C(=O)OC)CCCC2)C(=O)c2ccc(Cl)s2)c(F)cc1Cl` (stereo not shown) [compound 97]?
**A.** Injury of Paddy (paddy rice; 6.25 g/10a): 0; Injury of Paddy (paddy rice; 12.5 g/10a): 0; Herbicidal Effect nobie ([1]; 6.25 g/10a): 5; Herbicidal Effect nobie ([1]; 12.5 g/10a): 5; Herbicidal Effect broad-leaved weed (broad-leaved weeds; 6.25 g/10a): 5; Herbicidal Effect broad-leaved weed (broad-leaved weeds; 12.5 g/10a): 5; Herbicidal Effect hotarui ([2]; 6.25 g/10a): 4; Herbicidal Effect hotarui ([2]; 12.5 g/10a): 4; Herbicidal Effect tamagayatsuri ([3]; 6.25 g/10a): 4; Herbicidal Effect tamagayatsuri ([3]; 12.5 g/10a): 4; Herbicidal Effect rice (rice; 40 g/10a): 1; Herbicidal Effect rice (rice; 80 g/10a): 1; Herbicidal Effect cockspur ([4]; 40 g/10a): 1; Herbicidal Effect cockspur ([4]; 80 g/10a): 1; Herbicidal Effect garden radish (garden radish; 40 g/10a): 5; Herbicidal Effect garden radish (garden radish; 80 g/10a): 5; Herbicidal Effect aobiyu ([5]; 40 g/10a): 4; Herbicidal Effect aobiyu ([5]; 80 g/10a): 5; Herbicidal Effect mehishiba ([6]; 40 g/10a): 1; Herbicidal Effect mehishiba ([6]; 80 g/10a): 1; Herbicidal Effet ichibi ([7]; 4 g/10a): 5; Herbicidal Effet ichibi ([7]; 8 g/10a): 5; Herbicidal Effet onamomi ([8]; 4 g/10a): 4; Herbicidal Effet onamomi ([8]; 8 g/10a): 4; Herbicidal Effet noasagao ([9]; 4 g/10a): 4; Herbicidal Effet noasagao ([9]; 8 g/10a): 4; Herbicidal Effet ooinutade ([10]; 4 g/10a): 4; Herbicidal Effet ooinutade ([10]; 8 g/10a): 5
